Data: US20110065760A1, “COMPOUNDS FOR THE INHIBITION OF ROTAMASES AND USE THEREOF” (Jerini AG, priority 2002, published 2011)
Read-outs that look alike come from different tables or passages of the source.

Key:
[1] = WST-1 cytotoxicity assay, HL-60; assay type: cell-based; settings: human, HL-60 cells (acute myeloid leukemia); WST-1, 48 h incubation; read-out: EC50 class, cytotoxic effect, CL-1 (HL-60)
Experimental: (§1) For this cytotoxic evaluation of the compounds the commercial available WST-1 assay (Roche) was used according to the manufacturer's instructions. The assay is based on the cleavage of the tetrazolium salt WST-1 by mitochondrial dehydrogenases found in viable cells. In general compounds were added to cells cultured in 96-well plates at 37° C. After 48 h of incubation 10 μl of WST-1 solution was added. The formazan dye was analyzed with an ELISA plate reader at (450 vs. 620) nm. CL-1: human acute myeloid leukemia, HL-60 CL-2: human cervix carcinoma, HeLa CL-3: human prostate carcinoma, PC-3 CL-4: human colon adenocarcinoma, Caco-2 CL-5: human breast adenocarcinoma, MCF-7

[2] = WST-1 cytotoxicity assay, MCF-7; assay type: cell-based; settings: human, MCF-7 cells (breast adenocarcinoma); WST-1, 48 h incubation; read-out: EC50 class, cytotoxic effect, CL-5 (MCF-7)
Experimental: as §1

hPin1 = hPin1 (Homo sapiens, UniProt Q13526); experiment: protease-coupled PPIase assay, hPin1; assay type: biochemical; settings: 6 nM hPin1, substrate Ac-Ala-Ala-Ser(PO3H2)-Pro-Arg-pNA, trypsin, pH 7.8, 6° C.; read-out: IC50 class, Target T-1 (hPin1)
hPin1, sequence (Q13526 whole entry): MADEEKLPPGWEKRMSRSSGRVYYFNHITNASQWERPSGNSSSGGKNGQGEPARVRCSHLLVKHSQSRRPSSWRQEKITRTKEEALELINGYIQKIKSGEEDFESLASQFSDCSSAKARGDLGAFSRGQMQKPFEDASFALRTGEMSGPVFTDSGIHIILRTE

[3] = WST-1 cytotoxicity assay, PC-3; assay type: cell-based; settings: human, PC-3 cells (prostate carcinoma); WST-1, 48 h incubation; read-out: EC50 class, cytotoxic effect, CL-3 (PC-3)
Experimental: as §1

[4] = WST-1 cytotoxicity assay, HeLa; assay type: cell-based; settings: human, HeLa cells (cervix carcinoma); WST-1, 48 h incubation; read-out: EC50 class, cytotoxic effect, CL-2 (HeLa)
Experimental: as §1

[5] = system: tumor cell lines (HL-60, HeLa, PC-3, Caco-2, MCF-7); experiment: WST-1 cytotoxicity assay, tumor cell lines (panel statement); assay type: cell-based, human; settings: WST-1, 48 h; table 4
Experimental: as §1

hCyp18 = hCyp18 (Homo sapiens, UniProt P62937); experiment: protease-coupled PPIase assay, hCyp18; assay type: biochemical; settings: 10 nM hCyp18, substrate Suc-Ala-Phe-Pro-Phe-pNA, chymotrypsin, pH 7.8, 6° C.; read-out: IC50 class, Target T-3 (hCyp18)
hCyp18, sequence (P62937 whole entry): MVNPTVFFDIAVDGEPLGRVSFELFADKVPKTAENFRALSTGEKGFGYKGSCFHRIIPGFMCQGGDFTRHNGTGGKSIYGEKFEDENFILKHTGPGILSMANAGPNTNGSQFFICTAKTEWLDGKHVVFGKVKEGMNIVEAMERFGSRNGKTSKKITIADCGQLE

LpCyp18 = LpCyp18 (Legionella pneumophila, UniProt Q5ZRZ4); experiment: biochemical; settings: IC50 class, Target T-4 (LpCyp18)
LpCyp18, sequence (Q5ZRZ4 1-164): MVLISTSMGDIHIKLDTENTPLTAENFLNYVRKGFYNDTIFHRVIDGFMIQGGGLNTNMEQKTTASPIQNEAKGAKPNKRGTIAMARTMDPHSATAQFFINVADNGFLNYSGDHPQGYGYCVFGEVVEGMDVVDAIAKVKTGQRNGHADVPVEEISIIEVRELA

hFKBP12 = hFKBP12 (Homo sapiens, UniProt P62942); experiment: protease-coupled PPIase assay, hFKBP12; assay type: biochemical; settings: 20 nM hFKBP12, substrate Suc-Ala-Phe-Pro-Phe-pNA, chymotrypsin, pH 7.8, 6° C.; read-out: IC50 class, Target T-2 (hFKBP12)
hFKBP12, sequence (P62942 whole entry): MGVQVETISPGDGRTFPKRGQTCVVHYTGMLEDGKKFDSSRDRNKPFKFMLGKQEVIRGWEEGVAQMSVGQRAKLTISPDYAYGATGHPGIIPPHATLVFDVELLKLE

EcParvulin = EcParvulin (Escherichia coli, UniProt P0A9L5); experiment: protease-coupled PPIase assay, EcParvulin; assay type: biochemical
EcParvulin, sequence (P0A9L5 whole entry): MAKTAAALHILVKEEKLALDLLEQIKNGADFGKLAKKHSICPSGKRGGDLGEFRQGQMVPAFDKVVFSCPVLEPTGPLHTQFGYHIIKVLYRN

cathepsin B = cathepsin B (Homo sapiens, UniProt P07858); experiment: cathepsin B assay; assay type: biochemical; settings: 0.2 μg/ml cathepsin B, 2 mM Z-Arg-Arg-pNA, pH 5.8, 30° C., 30 min incubation; read-out: IC50 class, Target T-8 (Cathepsin)
Experimental: (§2) In order to investigate the impact of some of the inventive compounds on the activity of key proteases the following assay was performed: Protease activities were measured spectrophotometrically at 30° C. according to Schomburg and Salzmann (Schomburg, B.; Salzmann M. GBF: Enzyme Handbook. Springer Verlag, Berlin Heidelberg, 1991) and Bergmeyer et al. (Bergmeyer, H. U.; Bergmeyer, J.; Graβl, M. Methods of Enzymatic Analysis, Vol. V Enzymes 3: Peptides, Proteinases and Their Inhibitors. pp 55-371, VCH, Weinheim, 1988). The release of 4-nitroaniline was determined at 390 nm with a Spectramax Plus UV/Vis spectrophotometer (Molecular Devices). The cathepsin B assay was performed in a reaction mixture containing 0.2 μg/ml cathepsin B, 2 mM Z-Arg-Arg-pNA in 88 mM KH2PO4, 12 mM Na2HPO4, 1.33 mM EDTA, 0.03% Brij 35 (pH 5.8). The trypsin assay was carried out in a reaction mixture containing 0.1 μg/ml trypsin and 120 μM Ac-Ala-Ala-Ser(PO3H2)-Pro-Arg-pNA in 35 mM HEPES (pH 7.8) and the papain assay in a mixture consisting of 16 μg/ml papain and 2 mM Bz-DL-Arg-pNA in 10 mM Na2HPO4, 2 mM L-Cys, 5 mM EDTA (pH 6.5). In general, reactions were started by addition of peptide substrate after a 30 min incubation of 1-100 μM effector with given concentrations of enzyme.

Papain = molecular target: T1, Papain (Carica papaya, UniProt P00784); experiment: papain assay; assay type: biochemical; settings: 16 μg/ml papain, 2 mM Bz-DL-Arg-pNA, pH 6.5, 30° C., 30 min incubation; read-out: IC50 class, Target T-6 (Papain)
T1 sequence (P00784 134-345): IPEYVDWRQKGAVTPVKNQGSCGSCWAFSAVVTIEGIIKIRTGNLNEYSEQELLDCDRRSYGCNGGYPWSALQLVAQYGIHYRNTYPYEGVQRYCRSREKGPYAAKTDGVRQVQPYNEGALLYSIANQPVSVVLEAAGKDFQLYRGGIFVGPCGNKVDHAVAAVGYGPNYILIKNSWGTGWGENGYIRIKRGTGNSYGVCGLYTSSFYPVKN
Experimental: as §2

[6] = system: cyclin D1 in MCF-7 and HeLa cells; experiment: Cyclin D1 down regulation (western blot marker analysis); assay type: cell-based, human
Experimental: MCF-7 (5×10^5 cells/well) and HeLa cells (1.5×10^5 cells/well) were seeded in 6-well plates and incubated at 37° C. over night. Compounds or DMSO (final solvent concentration 0.1%) were added to the cells and incubated for different times as indicated. Subsequently, cells were lysed in RIPA buffer for 30 min on ice and centrifuged for 20 min at 4° C. After addition of electrophoresis sample buffer (4×) and 50 mM DTT to the supernatant, samples were boiled for 4 min at 95° C. Samples (equivalent to 2×10^5 cells/well) were run on a 15% SDS gel followed by blotting onto PVDF membrane.
The membrane was blocked for 1 h in 10 mM Tris (pH 7.5), 100 mM NaCl, 0.1% Tween-20 and 5% non-fat dry milk (blocking buffer) and incubated for 1 h with mouse anti-hCyclin D1 monoclonal antibody (clone DCS-6, BD Biosciences) diluted to 1 μg/ml in blocking buffer. Blots were washed 3×10 min with 10 mM Tris (pH 7.5), 100 mM NaCl, 0.1% Tween-20 (washing buffer) and incubated with 0.7 μg/ml peroxidase-conjugated sheep anti-mouse IgG (Sigma) in blocking buffer for 1 h. After washing 3×10 min with washing buffer, the plot was developed with the ECL+ detection kit (Amersham Biosciences).

[7] = 20 nM EcParvulin, substrate Suc-Ala-Phe-Pro-Phe-pNA, chymotrypsin, pH 7.8, 6° C., read-out: IC50 class, Target T-5 (EcParv)

SMILES | EC50 at 48 h [1] [µM] | EC50 at 48 h [2] [µM] | EC50 at 48 h [3] [µM] | EC50 at 48 h [4] [µM] | further results
CC(C)(C)CC(C)(C)NC(=O)Nc1cc(Cl)ccc1O [Compound 6] | 10 to 50 | < 10 |  |  | 
CC(C)(C)CC(C)(C)NC(=O)Nc1cccc(Cl)c1O [Compound 54] | 10 to 50 | < 10 |  |  | 
CC(C)(C)CC(C)(C)NC(=O)Nc1ccc(F)c(F)c1O [Compound 150] | 10 to 50 | < 10 |  |  | 
Oc1c(Cl)cc(Cl)cc1NC(=S)Nc1ccccc1C(F)(F)F [Compound 221] | 10 to 50 | 10 to 50 |  |  | 
Cc1c(Cl)cc(NC(=S)NCc2ccccc2)c(O)c1Cl [Compound 254] | 10 to 50 | 10 to 50 | 10 to 50 | 10 to 50 | IC50 (hPin1): < 1 µM
Oc1c(Cl)cc(Cl)cc1NCc1ccccc1Sc1ccc(Cl)cc1 [Compound 329] | 10 to 50 | 10 to 50 | 10 to 50 | 10 to 50 | 
Oc1c(Cl)cc(Cl)cc1NCc1ccccc1Sc1ccccc1Cl [Compound 332] | 10 to 50 |  | 10 to 50 | 10 to 50 | 
Oc1c(F)cccc1NCc1ccccc1Sc1ccc(Cl)cc1 [Compound 357] | < 10 |  | < 10 | < 10 | cytotoxic effect on the tumor cell lines tested [5]: particular relevance
Oc1c(NCc2ccccc2Sc2ccccc2Cl)ccc(F)c1F [Compound 402] | 10 to 50 |  | 10 to 50 | 10 to 50 | 
Oc1c(NCc2ccccc2Sc2cccc(Cl)c2)ccc(F)c1F [Compound 403] | 10 to 50 |  | < 10 | < 10 | 
CC(O)c1cc(Cl)cc(NCc2ccccc2Sc2ccc(Cl)cc2)c1O (centres unmarked) [Compound 413] | 10 to 50 |  | 10 to 50 | < 10 | 
CC(C)(C)c1ccc(Oc2cccc(CNc3cc(Cl)cc(Cl)c3O)c2)cc1 [Compound 483] |  |  | 10 to 50 | 10 to 50 | IC50 (hCyp18): 10 to 50 µM; IC50 (hPin1): 1 to 10 µM; IC50 (LpCyp18): > 100 µM; IC50 (hFKBP12): > 100 µM; IC50 (EcParvulin; [7]): 50 to 100 µM
Oc1c(Cl)cc(Cl)cc1NCc1cccc(OCc2ccccc2)c1 [Compound 484] | 10 to 50 |  | < 10 | < 10 | 
COc1ccc(Oc2cccc(CNc3cc(Cl)cc(Cl)c3O)c2)cc1 [Compound 493] | 10 to 50 |  | < 10 | < 10 | 
Cc1c(Cl)cc(NCc2cccc(Oc3ccccc3)c2)c(O)c1Cl [Compound 497] |  |  |  |  | IC50 (cathepsin B): 10 to 50 µM; IC50 (Papain): > 100 µM
Cc1c(Cl)cc(NC(=O)CC(C)CC(C)(C)C)c(O)c1Cl (centres unmarked) [Compound 599] |  |  |  |  | IC50 (hCyp18): > 100 µM; IC50 (hPin1): 1 to 10 µM; IC50 (LpCyp18): 50 to 100 µM; IC50 (cathepsin B): 50 to 100 µM; IC50 (Papain): > 100 µM; IC50 (hFKBP12): > 100 µM; IC50 (EcParvulin): 10 to 50 µM
Oc1ccccc1NCc1ccccc1Sc1ccc(Cl)cc1 [Compound 630] | 10 to 50 |  | < 10 | < 10 | 
O=C(NCc1ccccc1)Nc1cc(Cl)c(O)c(NCc2ccccc2Sc2ccc(Cl)cc2)c1 [Compound 631] | < 10 |  | 10 to 50 |  | 
O=C(NCCc1ccccc1)Nc1cc(Cl)c(O)c(NCc2ccccc2Sc2ccc(Cl)cc2)c1 [Compound 632] | < 10 |  | 10 to 50 |  | 
O=C(Nc1ccc(Cl)cc1)Nc1cc(Cl)c(O)c(NCc2ccccc2Sc2ccc(Cl)cc2)c1 [Compound 633] | < 10 |  | < 10 |  | cytotoxic effect on the tumor cell lines tested [5]: particular relevance
CC(C)NC(=S)Nc1cc(-c2nc3ccccc3s2)cc(Cl)c1O [Compound 639] | < 10 | 10 to 50 |  |  | IC50 (hPin1): < 1 µM; cyclin D1 down regulation [6]: particular relevance
CC(C)(C)NC(=S)Nc1cc(-c2nc3ccccc3s2)cc(Cl)c1O [Compound 640] | 10 to 50 | 10 to 50 |  |  | IC50 (hPin1): 1 to 10 µM
O=C(Nc1cc(Cl)cc(Cl)c1O)c1ccc(-c2ccccc2)cc1 [Compound 645] | < 10 | < 10 | < 10 | < 10 | cytotoxic effect on the tumor cell lines tested [5]: particular relevance; IC50 (Papain): > 100 µM
Cc1c(Cl)cc(NCc2ccco2)c(O)c1Cl [Compound 646] |  |  |  |  | IC50 (cathepsin B): > 100 µM; IC50 (Papain): > 100 µM
Cc1c(Cl)cc(NCc2ccccc2C(F)(F)F)c(O)c1Cl [Compound 649] |  |  |  |  | IC50 (cathepsin B): 50 to 100 µM; IC50 (Papain): > 100 µM
O=C(Nc1cc(Cl)nc(Cl)c1)Nc1cc(Cl)c(O)c(NCc2ccccc2Sc2ccc(Cl)cc2)c1 [Compound 652] | < 10 |  | < 10 |  | cytotoxic effect on the tumor cell lines tested [5]: particular relevance
Oc1c(Cl)cc(-c2nc3ccccc3s2)cc1NC(=S)NC1CCCC1 [Compound 653] | < 10 | 10 to 50 |  |  | 
O=C(Nc1cc(Cl)c(O)c(NCc2ccccc2Sc2ccc(Cl)cc2)c1)N1CCOCC1 [Compound 654] |  | < 10 |  | 10 to 50 | 
Oc1ccc(NCc2ccccc2Sc2ccc(Cl)cc2)c(O)c1 [Compound 1044] | 10 to 50 |  | 10 to 50 | 10 to 50 | IC50 (hCyp18): 10 to 50 µM; IC50 (hPin1): < 1 µM; cytotoxic effect on the tumor cell lines tested [5]: particular relevance; IC50 (LpCyp18): 1 to 10 µM; IC50 (hFKBP12): 10 to 50 µM; IC50 (EcParvulin; [7]): 10 to 50 µM
